Drawing on patent US11882827B2, “Agricultural mixtures comprising carboxamide compound” (BASF AGROCHEMICAL PRODUCTS B.V., priority 2013, dated 2024), this text covers Observed efficacy for 5 molecules.

Structures are written as SMILES. Like-named read-outs stand apart in the source and are kept apart here.

Assay type in all cases: cell-based
What all share (conditions): single active, 7 days after inoculation

In one experiment the test system is Septoria tritici. Put plainly: Microtest, activity against leaf blotch on wheat caused by Septoria tritici.
A further experiment relates to Leptosphaeria nodorum. Briefly: Microtest, activity against wheat leaf spots caused by Leptosphaeria nodorum.
The subject of a further experiment is Pyrenophora teres. Put plainly: Microtest, activity against Pyrenophora teres.
The subject of the next experiment is Pyricularia oryzae.
In the next experiment the test system is Rhizoctonia solani. Briefly: Microtest, activity against Rhizoctonia solani.
A further experiment has as its system Microdochium nivale. Put plainly: Microtest, activity against Microdochium nivale.

For the molecule `COCC(=O)N(c1c(C)cccc1C)C(C)C(=O)OC` (centres unmarked) [Metalaxyl], the Observed efficacy in the experiment with Septoria tritici (1 ppm) and in the experiment with Septoria tritici (4 ppm) was 5 in each case.
`COC(=O)N(OC)c1ccccc1COc1ccn(-c2ccc(Cl)cc2)n1` [Pyraclostrobin]: the Observed efficacy is on record as 72 in the experiment on Leptosphaeria nodorum (0.25 ppm) and 34 with Pyrenophora teres (0.016 ppm).
As to `CC1(C)CCC(=Cc2ccc(Cl)cc2)C1(O)Cn1cncn1` (centres unmarked) [Triticonazol], the Observed efficacy in the experiment on Septoria tritici (0.063 ppm) amounted to 5.
With `CN(C(=O)c1ccccc1)c1cccc(C(=O)Nc2c(Br)cc(C(F)(C(F)(F)F)C(F)(F)F)cc2C(F)(F)F)c1F` [carboxamide compound of formula I], the figures for the Observed efficacy in the experiment on Leptosphaeria nodorum (4 ppm), with Septoria tritici (63 ppm) and with Pyrenophora teres (63 ppm) were 1, 11 and 20, respectively.
Turning to `Fc1ccc([C@]2(Cn3cncn3)O[C@H]2c2ccccc2Cl)cc1` [Epoxiconazol], the Observed efficacy came out at 7 with Septoria tritici (0.016 ppm); 1 in the experiment with Pyricularia oryzae (0.063 ppm); 28 in the experiment on Pyricularia oryzae (0.25 ppm); 0 with Rhizoctonia solani (0.001 ppm); 0 with Rhizoctonia solani (0.004 ppm); 24 in the experiment with Rhizoctonia solani (0.016 ppm). Besides, the Observed efficacy in the experiment with Pyrenophora teres (0.016 ppm) is recorded as 0; in the experiment with Microdochium nivale (0.004 ppm), 8; in the experiment with Microdochium nivale (0.016 ppm) it was 29.
